Structures can show the parent of a compound that is named as a salt.
melting point [°C]	Compound
148 to 151	Cc1c(C)c(C)c(S(=O)(=O)N[C@@H](Cc2nc3ccc(/C=C/CNc4ccccn4)cc3c(=O)[nH]2)C(=O)O)c(C)c1C (as salt: TFA) [Compound 10, (αS)-3,4-dihydro-4-oxo-α-[[(2,3,4,5,6-pentamethylphenyl)sulfonyl]amino]-6-[(1E)-3-(2-pyridinylamino)-1-propenyl]-2-quinazolinepropanoic Acid]
218 to 221	Cc1c(C)c(C)c(S(=O)(=O)N[C@@H](Cc2nc3ccc(CCCNc4ccccn4)cc3c(=O)[nH]2)C(=O)O)c(C)c1C (as salt: HCl) [Compound 11, (αS)-3,4-dihydro-4-oxo-α-[[(2,3,4,5,6-pentamethylphenyl)sulfonyl]amino]-6-[3-(2-pyridinylamino)propyl]-2-quinazolinepropanoic Acid]
131 to 135	Cc1c(C)c(C)c(S(=O)(=O)N[C@@H](Cc2nc3ccc(/C=C/CNC4=NCCN4)cc3c(=O)[nH]2)C(=O)O)c(C)c1C (as salt: TFA) [Compound 1, 6-[(1E)-3-[(4,5-dihydro-1H-imidazol-2-yl)amino]-1-propenyl]-(αS)-3,4-dihydro-4-oxo-α-[[(2,3,4,5,6-pentamethylphenyl)sulfonyl]amino]-2-quinazolinepropanoic Acid]

Reference: US7081460B2, “Quinazoline and quinazoline-like compounds for the treatment of integrin-mediated disorders” (Ortho-McNeil Pharmaceutical, Inc., priority 2001, dated 2006)
